# Data from US5401749A, “9-amino-1,4ethano-1,2,3,4-tetrahydroacridine and related compounds” (Hoechst-Roussel Pharmaceuticals Inc., priority 1988, dated 1995).
# Like-named read-outs stand apart in the source and are kept apart here.
# What was measured:
# [1] = molecular target: Acetylcholinesterase (Homo sapiens, UniProt P22303); assay: Acetylcholinesterase Inhibition Assay (photometric method of Ellman et al.); format: biochemical
# [2] = tested on: Scopolamine Induced Memory Deficit; assay: Dark Avoidance Assay (reversal of scopolamine induced memory deficit); format: in vivo; conditions: mice, s.c., tested again after 24 hours
# Protocol: This utility can also be ascertained by determining the ability of these compounds to restore cholinergically deficient memory in the Dark Avoidance Assay. In this assay mice are tested for their ability to remember an unpleasant stimulus for a period of 24 hours. A mouse is placed in a chamber that contains a dark compartment; a strong incadescent light drives it to the dark compartment, where an electric shock is administered through metal plates on the floor. The animal is removed from the testing apparatus and tested again, 24 hours later, for the ability to remember the electric shock.
# If scopolamine, an anticholinergic that is known to cause memory impairment, is administered before an animal's initial exposure to the test chamber, the animal re-enters the dark compartment shortly after being placed in the test chamber 24 hours later. This effect of scopolamine is blocked by an active test compound, resulting in a greater interval before re-entry into the dark compartment.
# The test results are expressed as the percent of a group of animals in which the effect of scopolamine is blocked, as manifested by an increased interval between being placed in the test chamber and re-entering the dark compartment. Results of Dark Avoidance Assay for some of the compounds of this invention are presented in Table 2 along with a result for a reference compound.
# [3] = photometric method of Ellman et al., read-out: Acetylcholinesterase Inhibition IC50
# Sequence of Acetylcholinesterase (P22303 32-614): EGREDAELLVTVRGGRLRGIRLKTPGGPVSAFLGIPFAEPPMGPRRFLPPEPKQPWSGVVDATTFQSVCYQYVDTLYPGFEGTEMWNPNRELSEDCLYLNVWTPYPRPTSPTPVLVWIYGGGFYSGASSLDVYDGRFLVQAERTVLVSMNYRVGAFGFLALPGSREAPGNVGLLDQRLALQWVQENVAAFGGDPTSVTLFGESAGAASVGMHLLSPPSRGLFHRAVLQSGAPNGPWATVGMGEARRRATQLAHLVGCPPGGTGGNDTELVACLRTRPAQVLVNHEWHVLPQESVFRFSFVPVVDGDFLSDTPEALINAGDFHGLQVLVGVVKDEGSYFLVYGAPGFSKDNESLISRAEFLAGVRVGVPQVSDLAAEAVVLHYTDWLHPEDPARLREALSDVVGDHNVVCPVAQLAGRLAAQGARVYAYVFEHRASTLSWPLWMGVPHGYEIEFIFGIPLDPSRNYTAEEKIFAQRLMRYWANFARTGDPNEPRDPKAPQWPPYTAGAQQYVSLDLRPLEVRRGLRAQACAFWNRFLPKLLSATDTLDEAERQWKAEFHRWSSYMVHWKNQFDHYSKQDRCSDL
SMILES,"IC50 [1, 3]",IC50 [1],other results
"Nc1c2c(nc3ccccc13)C1C=CC2CC1 (centres unmarked) [9-Amino-1,4-dihydro-1,4-ethanoacridine]",1.4 µM,–,–
"Nc1c2c(nc3ccccc13)C1CCC2CC1 [9-Amino-1,4-ethano-1,2,3,4-tetrahydroacridine]",6.6 µM,–,–
"Nc1c2c(nc3cc(C(F)(F)F)ccc13)C1CCC2C1 (centres unmarked) [9-Amino-1,4-methano-1,2,3,4-tetrahydro-6-trifluoromethylacridine]",–,4 µM,% of Animals with Scopolamine Induced Memory Deficit Reversal ([2]; 0.16 mg/kg of body weight): 20%
"Nc1c2c(nc3ccccc13)C1CCC2C1 (centres unmarked) [9-Amino-1,4-methano-1,2,3,4-tetrahydroacridine]",–,–,% of Animals with Scopolamine Induced Memory Deficit Reversal ([2]; 2.5 mg/kg of body weight): 40%
"Cc1ccc2c(N)c3c(nc2c1)C1CCC3C1 (centres unmarked) [9-Amino-1,4-methano-6-methyl-1,2,3,4-tetrahydroacridine]",–,0.3 µM,% of Animals with Scopolamine Induced Memory Deficit Reversal ([2]; 2.5 mg/kg of body weight): 36%
"Nc1c2c(nc3cc(F)ccc13)C1CCC2C1 (centres unmarked) [9-Amino-6-fluoro-1,4-methano-1,2,3,4-tetrahydroacridine]",–,0.08 µM,% of Animals with Scopolamine Induced Memory Deficit Reversal ([2]; 0.63 mg/kg of body weight): 9%
"C1=CC2CCC1c1nc3ccccc3c(NCc3ccccc3)c12 (centres unmarked) [9-Benzylamino-1,4-dihydro-1,4-ethanoacridine]",52 µM,–,–
"c1ccc(CNc2c3c(nc4ccccc24)C2CCC3CC2)cc1 [9-Benzylamino-1,4-ethano-1,2,3,4-tetrahydroacridine]",78 µM,–,–
"FC(F)(F)c1ccc2c(NCc3ccccc3)c3c(nc2c1)C1CCC3C1 (centres unmarked) [9-Benzylamino-1,4-methano-1,2,3,4-tetrahydro-6-trifluoromethylacridine]",> 1000 µM,–,–
"c1ccc(CNc2c3c(nc4ccccc24)C2CCC3C2)cc1 (centres unmarked) [9-Benzylamino-1,4-methano-1,2,3,4-tetrahydroacridine]",> 1000 µM,–,–
"Cc1ccc2c(NCc3ccccc3)c3c(nc2c1)C1CCC3C1 (centres unmarked) [9-Benzylamino-1,4-methano-6-methyl-1,2,3,4-tetrahydroacridine]",31 µM,–,–
"c1ccc(Nc2c3c(nc4ccccc24)C2CCC3C2)cc1 (centres unmarked) [9-Phenylamino-1,4-methano-1,2,3,4-tetrahydroacridine]",–,> 1000 µM,% of Animals with Scopolamine Induced Memory Deficit Reversal ([2]; 0.16 mg/kg of body weight): 20%
"CNC(=O)Oc1ccc2c(c1)[C@]1(C)CCN(C)[C@@H]1N2C [Physostigmine, reference compound]",–,–,% of Animals with Scopolamine Induced Memory Deficit Reversal ([2]; 0.31 mg/kg of body weight): 20%
